According to ChEMBL document CHEMBL6134905, “Double Swords in One: Novel Selective PI3K/110β PROTAC Degraders for the Treatment of Multidrug-Resistant Cancer by Activating ERS and Inhibiting P-gp” (J Med Chem, 2025):
The source made the active and inactive calls. The calls are words filed in the database; no cut-off is given here.

Experiments:
[1] = tested on: MCF7/ADM; assay: Antitumor activity against human MCF7/ADM cells xenografted in BALB/c mouse assessed as reduction in tumor volume at 50 mg/kg, ip measured every 2 days in presence of Adriamycin; type: functional, organism-based; settings: time 2.0 day
[2] = target: T1, von Hippel-Lindau disease tumor suppressor/Phosphatidylinositol 4,5-bisphosphate 3-kinase catalytic subunit alpha isoform (Homo sapiens, UniProt P42336+P40337); assay: PROTAC activity at PI3K-p110alpha/VHL in human MCF7/ADM cells assessed as reduction in PI3K-p110alpha mRNA level at 25 uM measured for 24 hrs by qRT-PCR analysis; type: cell-based
Target sequence in this assay (P40337 whole entry, looked up, canonical isoform): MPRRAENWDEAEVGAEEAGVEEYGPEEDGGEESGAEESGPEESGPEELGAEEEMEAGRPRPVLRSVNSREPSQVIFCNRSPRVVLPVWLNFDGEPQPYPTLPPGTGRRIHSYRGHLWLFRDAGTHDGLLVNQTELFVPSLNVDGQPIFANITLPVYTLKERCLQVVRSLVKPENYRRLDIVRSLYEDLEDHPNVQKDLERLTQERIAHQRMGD
Target sequence in this assay (P42336 whole entry, looked up, canonical isoform): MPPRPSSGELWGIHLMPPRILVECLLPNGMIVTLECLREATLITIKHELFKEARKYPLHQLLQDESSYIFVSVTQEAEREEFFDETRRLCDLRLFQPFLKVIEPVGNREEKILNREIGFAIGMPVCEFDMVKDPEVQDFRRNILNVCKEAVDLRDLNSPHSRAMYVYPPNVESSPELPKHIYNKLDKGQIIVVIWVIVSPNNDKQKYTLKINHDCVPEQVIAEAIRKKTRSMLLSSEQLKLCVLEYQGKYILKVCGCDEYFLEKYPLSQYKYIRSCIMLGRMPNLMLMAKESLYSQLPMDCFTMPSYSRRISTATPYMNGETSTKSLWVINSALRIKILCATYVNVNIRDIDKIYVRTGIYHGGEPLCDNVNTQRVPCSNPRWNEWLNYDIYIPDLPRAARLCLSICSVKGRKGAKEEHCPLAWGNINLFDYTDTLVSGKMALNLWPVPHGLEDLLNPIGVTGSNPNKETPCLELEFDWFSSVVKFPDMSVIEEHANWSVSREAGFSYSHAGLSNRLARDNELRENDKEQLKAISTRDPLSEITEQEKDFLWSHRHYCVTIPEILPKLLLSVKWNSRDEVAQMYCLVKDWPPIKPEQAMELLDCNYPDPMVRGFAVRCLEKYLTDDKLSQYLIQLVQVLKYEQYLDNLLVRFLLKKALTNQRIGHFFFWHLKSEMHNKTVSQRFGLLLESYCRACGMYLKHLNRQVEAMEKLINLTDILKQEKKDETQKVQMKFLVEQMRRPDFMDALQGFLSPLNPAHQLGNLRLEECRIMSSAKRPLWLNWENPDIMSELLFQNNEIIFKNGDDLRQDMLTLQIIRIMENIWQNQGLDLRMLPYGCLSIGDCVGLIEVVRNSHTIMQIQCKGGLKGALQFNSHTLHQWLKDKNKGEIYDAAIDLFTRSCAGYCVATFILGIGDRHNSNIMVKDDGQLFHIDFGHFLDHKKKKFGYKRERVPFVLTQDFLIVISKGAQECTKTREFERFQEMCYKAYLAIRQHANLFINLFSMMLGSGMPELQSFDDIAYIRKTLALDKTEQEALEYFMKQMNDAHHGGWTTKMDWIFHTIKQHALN

[3] = Induction of apoptosis in human MCF7/ADM cells at 25 uM incubated for 24 hrs by Annexin V-FITC/PI staining based flow cytometry analysis (reference value: 5.20%); type: functional
[4] = Induction of apoptosis in human MCF7/ADM cells at 12.5 uM incubated for 24 hrs by Annexin V-FITC/PI staining based flow cytometry analysis (reference value: 5.20%); type: functional
[5] = target: von Hippel-Lindau disease tumor suppressor/Phosphatidylinositol 4,5-bisphosphate 3-kinase catalytic subunit beta isoform (Homo sapiens, UniProt P42338+P40337); assay: PROTAC activity at PI3K-p110beta/VHL in human A549/DDP cells assessed as reduction in PI3K-p110beta mRNA level at 25 uM measured for 24 hrs by qRT-PCR analysis; type: cell-based
Chain of von Hippel-Lindau disease tumor suppressor/Phosphatidylinositol 4,5-bisphosphate 3-kinase catalytic subunit beta isoform (P40337 whole entry, looked up, canonical isoform): as the sequence (P40337 whole entry, looked up, canonical isoform) above
Chain of von Hippel-Lindau disease tumor suppressor/Phosphatidylinositol 4,5-bisphosphate 3-kinase catalytic subunit beta isoform (P42338 whole entry, looked up, canonical isoform): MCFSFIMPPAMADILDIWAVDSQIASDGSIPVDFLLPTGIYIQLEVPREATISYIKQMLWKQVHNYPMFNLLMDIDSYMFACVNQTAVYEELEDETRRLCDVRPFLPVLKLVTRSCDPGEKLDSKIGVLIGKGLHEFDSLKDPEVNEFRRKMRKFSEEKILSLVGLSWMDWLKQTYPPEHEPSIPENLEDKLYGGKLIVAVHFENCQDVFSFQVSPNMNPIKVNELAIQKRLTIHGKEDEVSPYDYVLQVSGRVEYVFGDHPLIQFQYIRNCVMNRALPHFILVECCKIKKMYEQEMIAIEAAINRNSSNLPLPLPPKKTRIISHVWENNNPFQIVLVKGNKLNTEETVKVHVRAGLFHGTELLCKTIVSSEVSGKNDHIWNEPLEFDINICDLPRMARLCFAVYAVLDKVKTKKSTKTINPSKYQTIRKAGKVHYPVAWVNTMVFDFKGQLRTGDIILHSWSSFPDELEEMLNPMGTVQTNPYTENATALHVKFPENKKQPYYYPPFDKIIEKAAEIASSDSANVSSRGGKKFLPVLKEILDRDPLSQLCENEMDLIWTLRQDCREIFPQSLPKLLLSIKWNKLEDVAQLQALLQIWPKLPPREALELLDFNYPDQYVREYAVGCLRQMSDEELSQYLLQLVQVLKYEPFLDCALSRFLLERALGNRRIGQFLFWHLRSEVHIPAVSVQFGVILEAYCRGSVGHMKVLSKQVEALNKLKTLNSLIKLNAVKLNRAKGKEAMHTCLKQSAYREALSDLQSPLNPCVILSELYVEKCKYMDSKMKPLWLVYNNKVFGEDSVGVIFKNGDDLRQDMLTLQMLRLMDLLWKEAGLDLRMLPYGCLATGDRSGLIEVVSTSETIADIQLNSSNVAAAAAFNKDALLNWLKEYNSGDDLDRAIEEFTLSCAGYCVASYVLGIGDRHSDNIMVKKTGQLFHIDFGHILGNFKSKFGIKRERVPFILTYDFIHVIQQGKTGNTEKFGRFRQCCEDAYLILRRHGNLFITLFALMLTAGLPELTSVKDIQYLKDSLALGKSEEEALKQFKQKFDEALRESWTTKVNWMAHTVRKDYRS

[6] = tested on: A549/CDDP; assay: Induction of apoptosis in human A549/DDP cells at 6.25 uM incubated for 24 hrs by Annexin V-FITC/PI staining based flow cytometry analysis (reference value: 4.27%); type: functional
[7] = target: T1, von Hippel-Lindau disease tumor suppressor/Phosphatidylinositol 4,5-bisphosphate 3-kinase catalytic subunit alpha isoform; assay: PROTAC activity at PI3K-p110alpha/VHL in human A549/DDP cells assessed as reduction in PI3K-p110alpha mRNA level at 25 uM measured for 24 hrs by qRT-PCR analysis; type: cell-based
Target sequence in this assay (P40337 whole entry, looked up, canonical isoform): as the sequence (P40337 whole entry, looked up, canonical isoform) above
Target sequence in this assay (P42336 whole entry, looked up, canonical isoform): as the sequence (P42336 whole entry, looked up, canonical isoform) above

[8] = tested on: A549/CDDP; assay: Induction of apoptosis in human A549/DDP cells at 12.5 uM incubated for 24 hrs by Annexin V-FITC/PI staining based flow cytometry analysis (reference value: 4.27%); type: functional
[9] = target: T1, von Hippel-Lindau disease tumor suppressor/Phosphatidylinositol 4,5-bisphosphate 3-kinase catalytic subunit alpha isoform; assay: PROTAC activity at PI3K-p110alpha/VHL in human MCF7/ADM cells assessed as induction of PI3K-p110alpha degradation incubated for 24 hrs by Western blot analysis; type: cell-based
Target sequence in this assay (P42336 whole entry, canonical isoform): as the sequence (P42336 whole entry, looked up, canonical isoform) above
Target sequence in this assay (P40337 whole entry, canonical isoform): as the sequence (P40337 whole entry, looked up, canonical isoform) above

[10] = tested on: A549/CDDP; assay: Induction of apoptosis in human A549/DDP cells at 25 uM incubated for 24 hrs in presence of TUDCA by Annexin V-FITC/PI staining based flow cytometry analysis (reference value: 4.27%); type: functional
[11] = tested on: A549/CDDP; assay: Induction of apoptosis in human A549/DDP cells at 25 uM incubated for 24 hrs by Annexin V-FITC/PI staining based flow cytometry analysis (reference value: 4.27%); type: functional

Activity [2] | Activity [5] | Activity [7] | DC50 [9] [µM] | Structure (SMILES) | Activity [1] | Activity [3] [%] | Activity [4] [%] | Activity [6] [%] | Activity [8] [%] | Activity [10] [%] | Activity [11] [%]
Active | – | – | – | Cc1cc(C(C)Nc2ccccc2C(=O)NCCOCCOCCC(=O)N[C@H](C(=O)N2C[C@H](O)C[C@H]2C(=O)NCc2ccc(-c3scnc3C)cc2)C(C)(C)C)c2nc(N3CCOCC3)cc(=O)n2c1 (stereo partly specified) | Active | 26.66 | 15.59 | – | – | – | –
– | inactive | inactive | > 50 | Cc1cc(C(C)Nc2ccccc2C(=O)NCCCCCCC(=O)N[C@H](C(=O)N2C[C@H](O)C[C@H]2C(=O)NCc2ccc(-c3scnc3C)cc2)C(C)(C)C)c2nc(N3CCOCC3)cc(=O)n2c1 (stereo partly specified) | – | – | – | 8.73 | 15.76 | 22.84 | 23.83
